target: 5-hydroxytryptamine receptor 2A (Homo sapiens, UniProt P28223); assay: Displacement of [3H]ketanserin from human 5HT2A receptor
Sequence (P28223 whole entry): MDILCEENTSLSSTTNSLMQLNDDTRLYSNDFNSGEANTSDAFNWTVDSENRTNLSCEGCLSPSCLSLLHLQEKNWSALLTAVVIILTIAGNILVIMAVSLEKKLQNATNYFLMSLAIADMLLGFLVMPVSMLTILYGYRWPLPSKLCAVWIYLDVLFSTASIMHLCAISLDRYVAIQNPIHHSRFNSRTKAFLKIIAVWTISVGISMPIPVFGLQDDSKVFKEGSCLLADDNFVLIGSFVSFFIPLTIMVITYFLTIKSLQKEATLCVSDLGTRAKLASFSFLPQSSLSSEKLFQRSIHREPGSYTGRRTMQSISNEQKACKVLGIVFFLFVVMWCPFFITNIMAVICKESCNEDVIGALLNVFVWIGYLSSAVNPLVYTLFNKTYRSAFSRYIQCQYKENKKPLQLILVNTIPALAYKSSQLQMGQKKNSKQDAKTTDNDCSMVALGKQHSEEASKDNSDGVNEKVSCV

Row | SMILES | Ki
1 | COc1cccc2c1Cc1ccccc1C2CN (centres undefined) | 124 nM
2 | COc1cccc2c1C(CN)c1ccccc1C2 (centres undefined) | 1160 nM
3 | COc1ccc2c(c1)C(CN)c1ccccc1C2 (centres undefined) | 1370 nM
4 | COc1ccc2c(c1)Cc1ccccc1C2CN (centres undefined) | 7.5 nM
